Test results published in ChEMBL document CHEMBL1212712, “A pulse at the heart of targeted therapy” (Nat Chem Biol, 2009).

Columns and labels:
[1] = Antiproliferative activity against human CML cells; type: functional, cell-based; settings: Leukemia cell
[2] = Cmax in chronic myeloid leukemia patient; type: ADME, organism-based; settings: human, in vivo
[3] = Half life in chronic myeloid leukemia patient; type: ADME, organism-based; settings: human, in vivo

| Structure (SMILES) | IC50 [1] [µM] | Cmax [2] [nM] | half-life [3] [h] |
| --- | --- | --- | --- |
| Cc1nc(Nc2ncc(C(=O)Nc3c(C)cccc3Cl)s2)cc(N2CCN(CCO)CC2)n1.O [DASATINIB] | 0.001 | 200 | 3 |
| Cc1ccc(NC(=O)c2ccc(CN3CCN(C)CC3)cc2)cc1Nc1nccc(-c2cccnc2)n1 [IMATINIB] | 0.35 | 2000 | – |
